18 compounds from patent US8129371B2, “Thienopyrimidine and pyrazolopyrimidine compounds and their use as mTOR kinase and PI3 kinase inhibitors” (Wyeth LLC, priority 2007, dated 2012) can be followed below.

For assay [1], the target named is T1, PI3K (Homo sapiens, UniProt P48736).
T1 construct: PI3 Kinase γ IC50; other: PI3 Kinase γ; other: PI3 Kinase γ isoform, fluorescence polarization
The experiment in a line: Fluorescence polarization assay for PI3K. It counts as biochemical. Conditions: PI3 Kinase γ; read-out: PI3 Kinase γ IC50. The gist of the method: (§1)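 PI3K was preincubated with compound (final DMSO 1%), and the reaction was started with PIP2/ATP substrate and run 30–60 min. It was stopped with a detector mix giving 10 nM red probe and 70 nM GST-GRP.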

Assay [2] concerns the target T2, PI3K (Homo sapiens, UniProt P42336).
T2 construct: PI3 Kinase α IC50; other: PI3 Kinase α; other: PI3 Kinase α isoform, fluorescence polarization
The experiment in a line: Fluorescence polarization assay for PI3K. In kind it is biochemical. The settings on record: PI3 Kinase α; read-out: PI3 Kinase α IC50. The gist of the method: as §1

Another assay relates to breast line MDA468. The experiment in a line: In vitro cell culture growth assay (MTS), MDA468. The settings on record: Homo sapiens, 72 h, MDA468 cells, three days after drug treatment. In kind it is cell-based. In short, it runs like this:
(§2)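 Growth is reported as percent of vehicle-treated control grown in the same plate, with viability determined by metabolic conversion of MTS dye and absorbance read at 490 nm. Compounds were applied one day after plating and left for three days.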

Another assay relates to prostate line LNCap. The experiment in a line: In vitro cell culture growth assay (MTS), LNCap. In kind it is cell-based. Conditions: Homo sapiens, LNCaP, 72 h, LNCap cells, three days after drug treatment. The gist of the method: as §2
For the next assay, the target named is T3, Human mTOR (FLAG-TOR) (Homo sapiens, UniProt P42345).
T3 construct: FLAG
The experiment in a line: Human mTOR kinase assay with purified enzyme, DELFIA format. It counts as biochemical. The gist of the method: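 Purified FLAG-mTOR in HEPES pH 7.4 buffer with 10 mM MnCl2 was preincubated with inhibitor and reacted 2 h at room temperature with His6-S6K substrate, then stopped with EDTA/EGTA. Phospho-T389 S6K detected by DELFIA with Eu-labelled antibody (40 ng/mL) after plate capture; inhibition computed from signal.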

T1 sequence (P48736 whole entry, canonical isoform): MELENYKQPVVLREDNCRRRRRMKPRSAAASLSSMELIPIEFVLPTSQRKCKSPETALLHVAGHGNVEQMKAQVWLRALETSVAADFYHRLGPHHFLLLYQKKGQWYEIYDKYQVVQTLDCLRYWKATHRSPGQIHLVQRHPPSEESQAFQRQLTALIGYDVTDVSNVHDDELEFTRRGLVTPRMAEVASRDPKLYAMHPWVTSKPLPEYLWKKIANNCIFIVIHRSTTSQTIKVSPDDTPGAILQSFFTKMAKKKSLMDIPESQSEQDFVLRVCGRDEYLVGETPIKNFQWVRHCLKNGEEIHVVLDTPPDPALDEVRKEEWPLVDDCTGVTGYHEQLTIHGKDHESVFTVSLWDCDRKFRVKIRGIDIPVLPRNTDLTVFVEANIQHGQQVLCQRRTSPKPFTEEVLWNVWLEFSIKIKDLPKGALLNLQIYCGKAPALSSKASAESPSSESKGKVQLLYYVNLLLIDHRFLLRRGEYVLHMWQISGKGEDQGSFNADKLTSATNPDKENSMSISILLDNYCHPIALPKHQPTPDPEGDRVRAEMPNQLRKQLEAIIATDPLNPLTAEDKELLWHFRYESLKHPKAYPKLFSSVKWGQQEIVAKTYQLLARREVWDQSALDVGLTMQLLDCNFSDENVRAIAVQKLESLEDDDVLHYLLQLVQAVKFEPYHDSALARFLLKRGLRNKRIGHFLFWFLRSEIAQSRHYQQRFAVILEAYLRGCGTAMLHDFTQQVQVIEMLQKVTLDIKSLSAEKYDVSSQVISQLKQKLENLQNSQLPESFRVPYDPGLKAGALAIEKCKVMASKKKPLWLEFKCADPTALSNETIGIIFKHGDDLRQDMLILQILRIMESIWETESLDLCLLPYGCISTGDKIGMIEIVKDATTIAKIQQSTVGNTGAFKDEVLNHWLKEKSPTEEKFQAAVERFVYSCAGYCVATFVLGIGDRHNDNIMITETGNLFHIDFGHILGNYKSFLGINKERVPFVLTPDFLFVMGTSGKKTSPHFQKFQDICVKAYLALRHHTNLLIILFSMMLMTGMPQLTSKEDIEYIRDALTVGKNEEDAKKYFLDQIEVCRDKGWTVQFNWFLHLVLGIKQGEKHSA
T2 sequence (P42336 whole entry, canonical isoform): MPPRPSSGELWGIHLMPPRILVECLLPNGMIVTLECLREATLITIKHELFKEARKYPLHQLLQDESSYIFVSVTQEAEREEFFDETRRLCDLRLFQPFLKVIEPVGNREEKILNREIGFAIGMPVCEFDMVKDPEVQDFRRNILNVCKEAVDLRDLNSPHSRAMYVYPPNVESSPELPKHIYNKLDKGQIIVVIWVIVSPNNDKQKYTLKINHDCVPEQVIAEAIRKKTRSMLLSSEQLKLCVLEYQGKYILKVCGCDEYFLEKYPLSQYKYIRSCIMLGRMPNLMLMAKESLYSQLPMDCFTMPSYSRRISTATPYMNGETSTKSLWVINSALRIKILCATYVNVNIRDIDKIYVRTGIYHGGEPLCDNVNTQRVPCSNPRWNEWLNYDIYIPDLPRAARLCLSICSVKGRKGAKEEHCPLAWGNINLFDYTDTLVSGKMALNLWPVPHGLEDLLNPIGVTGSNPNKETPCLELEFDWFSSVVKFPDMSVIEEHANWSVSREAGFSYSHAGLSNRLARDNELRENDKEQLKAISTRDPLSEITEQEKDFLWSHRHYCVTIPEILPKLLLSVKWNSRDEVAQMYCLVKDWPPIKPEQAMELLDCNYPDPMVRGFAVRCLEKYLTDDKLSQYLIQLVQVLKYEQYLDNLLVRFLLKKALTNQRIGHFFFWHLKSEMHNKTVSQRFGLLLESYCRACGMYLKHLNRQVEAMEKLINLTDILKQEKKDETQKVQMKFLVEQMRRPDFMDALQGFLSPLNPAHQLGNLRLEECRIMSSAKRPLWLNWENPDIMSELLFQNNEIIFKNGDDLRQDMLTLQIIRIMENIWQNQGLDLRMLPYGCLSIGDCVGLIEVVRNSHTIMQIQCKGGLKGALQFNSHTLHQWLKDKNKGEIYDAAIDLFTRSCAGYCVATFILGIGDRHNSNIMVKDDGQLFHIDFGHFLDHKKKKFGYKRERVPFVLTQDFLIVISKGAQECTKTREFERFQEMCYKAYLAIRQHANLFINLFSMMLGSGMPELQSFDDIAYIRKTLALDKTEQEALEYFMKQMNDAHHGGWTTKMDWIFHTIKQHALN

With `COC(=O)Nc1ccc(-c2nc(N3CC4CCC(C3)O4)c3cnn(C(C)C)c3n2)cc1` [Example 138, methyl {4-[1-isopropyl-4-(8-oxa-3-azabicyclo[3.2.1]oct-3-yl)-1H-pyrazolo[3,4-d]pyrimidin-6-yl]phenyl}carbamate], the IC50 on PI3K [1] is 3780 nM; on PI3K [2] it was 1040 nM; in the assay with breast line MDA468, 510 nM; in the assay on prostate line LNCap, 80 nM; against Human mTOR (FLAG-TOR), 1.27 nM.

Turning to `CNC(=O)Nc1ccc(-c2nc(N3CC4CCC(C3)O4)c3cnn(C(C)C)c3n2)cc1` [Example 139, 1-{4-[1-isopropyl-4-(8-oxa-3-azabicyclo[3.2.1]oct-3-yl)-1H-pyrazolo[3,4-d]pyrimidin-6-yl]phenyl}-3-methylurea], the IC50 at PI3K [1] is 6170 nM; at PI3K [2] it was 234 nM; in the assay with breast line MDA468, 50 nM; in the assay with prostate line LNCap it was 5 nM; at Human mTOR (FLAG-TOR) it was 0.115 nM.

For the compound `CCNC(=O)Nc1ccc(-c2nc(N3CC4CCC(C3)O4)c3cnn(C(C)C)c3n2)cc1` [Example 140, 1-ethyl-3-{4-[1-isopropyl-4-(8-oxa-3-azabicyclo[3.2.1]oct-3-yl)-1H-pyrazolo[3,4-d]pyrimidin-6-yl]phenyl}urea], the IC50 was found to be 5900 nM on PI3K [1]; 740 nM at PI3K [2]; 32 nM in the assay on breast line MDA468; 1 nM in the assay with prostate line LNCap; 0.14 nM against Human mTOR (FLAG-TOR).

For `CC(C)n1ncc2c(N3CC4CCC(C3)O4)nc(-c3ccc(NC(=O)NCCF)cc3)nc21` [Example 141, 1-(2-fluoroethyl)-3-{4-[1-isopropyl-4-(8-oxa-3-azabicyclo[3.2.1]oct-3-yl)-1H-pyrazolo[3,4-d]pyrimidin-6-yl]phenyl}urea], the IC50 on PI3K [1] is 6370 nM; on PI3K [2] it was 648 nM; in the assay with breast line MDA468 it was 40 nM; in the assay with prostate line LNCap it was 1 nM; against Human mTOR (FLAG-TOR), 0.155 nM.

Take `CC(C)n1ncc2c(N3CC4CCC(C3)O4)nc(-c3ccc(NC(=O)NC4CC4)cc3)nc21` [Example 142, 1-cyclopropyl-3-{4-[1-isopropyl-4-(8-oxa-3-azabicyclo[3.2.1]oct-3-yl)-1H-pyrazolo[3,4-d]pyrimidin-6-yl]phenyl}urea]: the IC50 at PI3K [1] turned out to be 5380 nM; at PI3K [2] it was 953 nM; in the assay with breast line MDA468 it was 48 nM; in the assay on prostate line LNCap it was 1 nM; against Human mTOR (FLAG-TOR), 0.2 nM.

For the compound `CC(C)n1ncc2c(N3CC4CCC(C3)O4)nc(-c3ccc(NC(=O)NCCO)cc3)nc21` [Example 143, 1-(2-hydroxyethyl)-3-{4-[1-isopropyl-4-(8-oxa-3-azabicyclo[3.2.1]oct-3-yl)-1H-pyrazolo[3,4-d]pyrimidin-6-yl]phenyl}urea], the IC50 at PI3K [1] is 4580 nM; on PI3K [2], 246 nM; in the assay on breast line MDA468, 70 nM; in the assay with prostate line LNCap it was 10 nM; at Human mTOR (FLAG-TOR) it was 0.076 nM.

Turning to `CC(C)n1ncc2c(N3CC4CCC(C3)O4)nc(-c3ccc(NC(=O)OCCO)cc3)nc21` [Example 144, 2-hydroxyethyl {4-[1-isopropyl-4-(8-oxa-3-azabicyclo[3.2.1]oct-3-yl)-1H-pyrazolo[3,4-d]pyrimidin-6-yl]phenyl}carbamate], the concentration for half-maximal inhibition (IC50) at PI3K [1] came out at 11000 nM; on PI3K [2], 831 nM; in the assay on breast line MDA468, 270 nM; in the assay on prostate line LNCap, 23 nM; against Human mTOR (FLAG-TOR), 0.27 nM.

As to `CC(C)n1ncc2c(N3CC4CCC(C3)O4)nc(-c3ccc(NC(=O)OCCCO)cc3)nc21` [Example 145, 3-hydroxypropyl {4-[1-isopropyl-4-(8-oxa-3-azabicyclo[3.2.1]oct-3-yl)-1H-pyrazolo[3,4-d]pyrimidin-6-yl]phenyl}carbamate], the IC50 at PI3K [1] is above 10000 nM; at PI3K [2] it was 3360 nM; with breast line MDA468 it was 12000 nM; with prostate line LNCap it was 250 nM; at Human mTOR (FLAG-TOR) it was 2.75 nM.

Regarding `CC(C)n1ncc2c(N3CC4CCC(C3)O4)nc(-c3ccc(NC(=O)OCC(O)CO)cc3)nc21` (stereo not drawn) [Example 146, 2,3-dihydroxypropyl {4-[1-isopropyl-4-(8-oxa-3-azabicyclo[3.2.1]oct-3-yl)-1H-pyrazolo[3,4-d]pyrimidin-6-yl]phenyl}carbamate], the IC50 at PI3K [1] worked out at 7640 nM; on PI3K [2], 2150 nM; in the assay with breast line MDA468, 580 nM; with prostate line LNCap, 110 nM; against Human mTOR (FLAG-TOR), 2.9 nM.

As to `CC(C)n1ncc2c(N3CC4CCC(C3)O4)nc(-c3ccc(NC(=O)Nc4ccccc4)cc3)nc21` [Example 147, 1-{4-[1-isopropyl-4-(8-oxa-3-azabicyclo[3.2.1]oct-3-yl)-1H-pyrazolo[3,4-d]pyrimidin-6-yl]phenyl}-3-phenylurea], the IC50 on PI3K [1] is 475 nM; on PI3K [2], 30 nM; with breast line MDA468, 18 nM; with prostate line LNCap, below 1 nM; against Human mTOR (FLAG-TOR), 0.185 nM.

For `CC(C)n1ncc2c(N3CC4CCC(C3)O4)nc(-c3ccc(NC(=O)Nc4cccnc4)cc3)nc21` [Example 148, 1-{4-[1-isopropyl-4-(8-oxa-3-azabicyclo[3.2.1]oct-3-yl)-1H-pyrazolo[3,4-d]pyrimidin-6-yl]phenyl}-3-pyridin-3-ylurea], the IC50 was 781 nM on PI3K [1]; 49 nM at PI3K [2]; 9 nM in the assay with breast line MDA468; below 1 nM with prostate line LNCap; 0.064 nM on Human mTOR (FLAG-TOR).

On to `CC(C)n1ncc2c(N3CC4CCC(C3)O4)nc(-c3ccc(NC(=O)Nc4ccncc4)cc3)nc21` [Example 149, 1-{4-[1-isopropyl-4-(8-oxa-3-azabicyclo[3.2.1]oct-3-yl)-1H-pyrazolo[3,4-d]pyrimidin-6-yl]phenyl}-3-pyridin-4-ylurea], for which the IC50 on PI3K [1] is 342 nM; at PI3K [2], 40 nM; with breast line MDA468 it was 4 nM; in the assay on prostate line LNCap, below 1 nM; against Human mTOR (FLAG-TOR) it was 0.125 nM.

Take `CNC(=O)Nc1ccc(-c2nc(N3CC4CCC(C3)O4)c3cnn(C4CCC(OC)(OC)CC4)c3n2)cc1` [Example 150, 1-{4-[1-(4,4-dimethoxycyclohexyl)-4-(8-oxa-3-azabicyclo[3.2.1]oct-3-yl)-1H-pyrazolo[3,4-d]pyrimidin-6-yl]phenyl}-3-methylurea]: the IC50 at PI3K [1] is above 10000 nM; on PI3K [2], 648 nM; in the assay with breast line MDA468, 35 nM; with prostate line LNCap, 2 nM; on Human mTOR (FLAG-TOR), 0.745 nM.

As to `CNC(=O)Nc1ccc(-c2nc(N3CC4CCC(C3)O4)c3cnn(C4CCC5(CC4)OCCCO5)c3n2)cc1` [Example 151, 1-{4-[1-(1,5-dioxaspiro[5.5]undec-9-yl)-4-(8-oxa-3-azabicyclo[3.2.1]oct-3-yl)-1H-pyrazolo[3,4-d]pyrimidin-6-yl]phenyl}-3-methylurea], the IC50 was above 10000 nM at PI3K [1]; 363 nM at PI3K [2]; 130 nM in the assay on breast line MDA468; 8 nM in the assay on prostate line LNCap; 1.19 nM at Human mTOR (FLAG-TOR).

For `CNC(=O)Nc1ccc(-c2nc(N3CC4CCC(C3)O4)c3cnn(C4CCC5(CC4)OCC(C)(C)CO5)c3n2)cc1` [Example 152, 1-{4-[1-(3,3-dimethyl-1,5-dioxaspiro[5.5]undec-9-yl)-4-(8-oxa-3-azabicyclo[3.2.1]oct-3-yl)-1H-pyrazolo[3,4-d]pyrimidin-6-yl]phenyl}-3-methylurea], the IC50 on PI3K [1] was above 10000 nM; at PI3K [2], 566 nM; in the assay with breast line MDA468, 180 nM; in the assay on prostate line LNCap, 3 nM; on Human mTOR (FLAG-TOR), 0.6 nM.

Consider `CNC(=O)Nc1ccc(-c2nc(N3CC4CCC(C3)O4)c3cnn(CCN(C)C)c3n2)cc1` [Example 153, 1-(4-{1-[2-(dimethylamino)ethyl]-4-(8-oxa-3-azabicyclo[3.2.1]oct-3-yl)-1H-pyrazolo[3,4-d]pyrimidin-6-yl}phenyl)-3-methylurea], for which the IC50 at PI3K [1] came to 4240 nM; on PI3K [2], 966 nM; in the assay on breast line MDA468 it was 2200 nM; in the assay on prostate line LNCap, 400 nM; against Human mTOR (FLAG-TOR), 14.5 nM.

In the case of `COC(=O)Nc1ccc(-c2nc(N3CC4CCC(C3)O4)c3cnn(CCN(C)C)c3n2)cc1` [Example 154, methyl (4-{1-[2-(dimethylamino)ethyl]-4-(8-oxa-3-azabicyclo[3.2.1]oct-3-yl)-1H-pyrazolo[3,4-d]pyrimidin-6-yl}phenyl)carbamate], the IC50 at PI3K [1] is above 10000 nM; on PI3K [2], 4280 nM; with breast line MDA468, 19000 nM; in the assay on prostate line LNCap, 2900 nM; against Human mTOR (FLAG-TOR) it was 85 nM.

With `CN(C)CCn1ncc2c(N3CC4CCC(C3)O4)nc(-c3ccc(NC(=O)Nc4ccc(CCO)cc4)cc3)nc21` [Example 155, 1-(4-{1-[2-(dimethylamino)ethyl]-4-(8-oxa-3-azabicyclo[3.2.1]oct-3-yl)-1H-pyrazolo[3,4-d]pyrimidin-6-yl}phenyl)-3-[4-(2-hydroxyethyl)phenyl]urea], the IC50 at PI3K [1] was determined as 1170 nM; at PI3K [2] it was 82 nM; in the assay on breast line MDA468, 110 nM; in the assay with prostate line LNCap it was 1 nM; against Human mTOR (FLAG-TOR), 1.75 nM.
